{"source": "patent US20250057910A1", "about": "“Application of Polypeptide in Preparation of Product for Preventing or Treating Skin Injury Diseases” (Sichuan Gooddoctor Panxi Pharmaceutical Co., Ltd., priority 2021, published 2025)", "key": {"[1]": {"system": "Wild-type AB-line zebrafish", "test": "Tissue regeneration in zebrafish with caudal fin damage", "assay_type": "in vivo", "conditions": "250, 500 and 1000 μg/mL in water, 28° C., 3 days; vs model control; FIG. 5", "procedure": "Experimental animals: Wild-type AB-line zebrafish, raised in water for culturing fish at 28° C. (water quality: 200 mg of instant dissolving sea salt being added to every 1 L of water made by reverse osmosis, with a conductivity of 450-550 μS/cm, a pH of 6.5-8.5 and a hardness of 50-100 mg/L CaCO3), at the age of 3 days post fertilization (3 dpf). The animals were provided by the fish breeding center of Hangzhou Hunter Biotechnology Co., Ltd. with the experimental animal use license number of SYXK (Zhejiang) 2012-0171, and the breeding management complied with the requirements of international AAALAC certification (certification number: 001458).\nExperimental method: 3 dpf wild AB-line zebrafish were randomly selected, and the caudal fins of zebrafish was excised to establish a model of caudal fin damage in zebrafish. […] Treatment was performed at 28° C. for 3 days, 10 zebrafish were randomly selected in each experimental group and placed under an anatomical microscope to take photos, the data were analyzed and collected using NIS-Elements D 3.20 advanced image processing software, the regeneration areas of caudal fins of zebrafish were analyzed, and the statistical analysis results of this index were used to evaluate the efficacy of the samples of promoting tissue regeneration."}, "[2]": {"system": "db/db mice", "test": "Healing of skin ulcers (full-thickness back wound) in db/db mice", "assay_type": "in vivo, mouse", "conditions": "for Wound healing rate: db/db mice, topical, polypeptide 30 μg/cm^2 qd, GeneTime 40 IU/cm^2 qd, Kangfuxin Ye 40 μL/mouse Bid, Mean ± SD, n = 10", "procedure": "Experimental animals: Diabetic model mice (db/db male mice), normal mice (m/m male mice), SPF grade, 8-10 weeks of age, weighting 40-50 g, from Changzhou Cavens Experimental Animal Co., Ltd., with the experimental animal production license number of SCXK (Su) 2016-0010, and the experimental animal use license number of SYXK (Shanghai) 2020-0038.\nExperimental method: After the blood glucose of the db/db mice reached the standard (blood glucose after fasting for 4 h>16.7 mmol/L), the mice were randomly divided into 5 groups with 10 mice in each group, namely, normal control group, model control group, Kangfuxin Ye group (40 μL per mouse), GeneTime group (40 IU/cm^2), the subject polypeptide group (30 μg/cm^2). After the mice were anesthetized with isoflurane inhalation, a circular wound with a diameter of about 12 mm was cut on the back of the mice with a cutter from the full layers of the skin to reach the fascia layer. The wound was photographed and the wound area was recorded as the baseline value (the wound was recorded as Day0). From the next day (Day 1), the animals in each group were administered as required, and all the skin wounds were applied externally. Both the normal control group and the model control group were given 40 μL of normal saline, and the GeneTime group (40 IU/cm^2) was given Recombinant human epidermal growth factor topical solution diluted in 40 μL of normal saline (Shenzhen Watsin Genetech Ltd.), and the subject polypeptide group (30 μg/cm^2) was given the corresponding concentration of the polypeptide prepared by using 40 μL normal saline, once a day; the Kangfuxin Ye group was given 40 μL of Kangfuxin Ye (SICHUAN GOODDOCTOR PANXI PHARMACEUTICAL CO., LTD.), twice a day. Administration was continued every day until the wound was basically healed. The skin wounds were measured and photographed twice a week, the areas of the wounds were calculated with the Image-J software, and the healing of the wounds in each group of animals was observed."}, "[3]": {"system": "Balb-3T3 cells (mouse embryo fibroblasts)", "test": "Proliferation of Balb-3T3 cells (CCK-8)", "assay_type": "cell-based", "conditions": "48 hours, 2.5% FBS maintenance medium, FIG. 3", "procedure": "Experimental method: Mouse embryo fibroblasts (Balb-3T3 cells) were cultured in 10% serum medium at 37° C. and 5% CO2, the culture fluid was changed every 1-2 days, and the cell concentration was controlled to be 4*10^6 cells/mL for passaging. The cells were collected and prepared into a concentration of 3* 10^4 cells/mL with 2.5% FBS maintenance medium, seeded into a 96-well cell culture plate with 100 uL per well, i.e., 3000 cells/well, and cultured at 37° C. and 5% CO2 to be adherent.\nThe polypeptide was dissolved in 2.5% FBS maintenance medium and prepared into a stock solution with a concentration of 1 mg/mL. The polypeptide stock solution was prepared with 2.5% FBS maintenance medium to test concentrations as the experimental groups; in the same manner, recombinant human basic fibroblast growth factor FGF (50 ng/mL), and recombinant human platelet derived growth factor PDGF-BB (30 ng/mL) were prepared and added as positive control; and for the blank control group, the same volume of 2.5% FBS maintenance medium was added. For all the groups, 5 duplicate wells were incubated at 37° C. and 5% CO2 for 48 hours. CCK-8 was used to detect cell proliferation: the serum-free medium containing 10% CCK-8 was added to each well, and absorbances were measured at 450 nm by microplate reader after incubation in an incubator for 2 hours."}}, "note": "Ends that are not written are not given here."}
{"sequence": "PAAEPVPL [polypeptide]", "values": [{"measurement": "Zebrafish caudal fin regeneration (regeneration area)", "setting": "[1]", "value": "significantly promoting tissue regeneration"}, {"measurement": "Wound healing rate", "setting": "[2]; Day 0 (baseline)", "value": "0.00 ± 0.00", "unit": "%"}, {"measurement": "Wound healing rate", "setting": "[2]; Day 3", "value": "−4.66 ± 17.55", "unit": "%"}, {"measurement": "Wound healing rate", "setting": "[2]; Day 7", "value": "13.06 ± 17.65", "unit": "%"}, {"measurement": "Wound healing rate", "setting": "[2]; Day 10", "value": "40.91 ± 16.33", "unit": "%"}, {"measurement": "Wound healing rate", "setting": "[2]; Day 14", "value": "89.44 ± 8.99", "unit": "%"}, {"measurement": "Skin wound healing in diabetic mice (statement in words)", "setting": "[2]; day 14, 30 μg/cm^2 qd, vs model control", "value": "significantly promote skin wound healing"}, {"measurement": "Proliferation-promoting effect on the Balb-3T3 cell line", "setting": "[3]", "value": "significant effect of promoting proliferation"}]}
